# According to publication PMC9320654 (Toxins, 2022):
# Counter-ions that a name gives are not always drawn.
# Experiments:
# [1] = Metabolic stability in cryopreserved hepatocytes, rat; format: in vitro ADME, Sprague Dawley rat
# Procedure: (§1) Hepatocyte metabolic stability was evaluated in cryopreserved hepatocytes from CD-1 mice (Lot#: EXR), Sprague Dawley rats (Lot#: OSQ), beagle dogs (Lot#: ZMB), cynomolgus monkeys (Lot#: KMS), and human donors (Lot#: AEL) obtained from Bioreclamation IVT, LLC (Shanghai, China). […] Samples were withdrawn from the reaction mixture at 0, 15, 30, 60, and 90 min and were quenched with stop solution (acetonitrile containing 200 ng/mL tolbutamide and 200 ng/mL labetalol as internal standards). A cocktail of 7-ethoxycoumarin (Lot#: I1825085) was used as the positive control for the assay. The analytical plates were sealed and stored at 4 °C until LC-MS/MS analysis.
# (§2) The remaining percentages of test articles after incubation were calculated by the following equations:(7) %Remainingat Appointed Time=Peak Area Ratios of Test Article versus Internal Standard at Appointed Time/Peak Area Ratios of Test Article versus Internal Standard 0 min
# (§3) We used the equation of first order kinetics to calculate T1/2 and CLint:
# (§4) Equation of first-order kinetics:(8) Ct=C0·e^−k·t when Ct=1/2C0,T1/2=ln2/k=0.693/k (9) CLint hep=k/million cells per mL (10) CLint liver=CLint hep×Liver weight g/kg body weight×hepatocellularity
# [2] = Metabolic stability in cryopreserved hepatocytes, mouse; format: in vitro ADME, CD-1 mouse
# Procedure: as §1, §2, §3, §4
# [3] = Metabolic stability in cryopreserved hepatocytes, dog; format: in vitro ADME, beagle dog
# Procedure: as §1, §2, §3, §4
# [4] = Metabolic stability in cryopreserved hepatocytes, human; format: in vitro ADME
# Procedure: as §1, §2, §3, §4
# [5] = Metabolic stability in cryopreserved hepatocytes, monkey; format: in vitro ADME, cynomolgus monkey
# Procedure: as §1, §2, §3, §4
# [6] = test system: CYP3A4/5; conditions: ref 20 (Li Mei's group); cited from earlier work
# [7] = Plasma protein binding (HTdialysis equilibrium dialysis), rat plasma; format: in vitro ADME; conditions: Sprague Dawley, pH 7.4, read-out: Fu (%), unbound fraction
# [8] = Plasma protein binding (HTdialysis equilibrium dialysis), mouse plasma; format: in vitro ADME, CD-1 mouse; conditions: CD-1, pH 7.4, read-out: Fu (%), unbound fraction
# [9] = Plasma protein binding (HTdialysis equilibrium dialysis), monkey plasma; format: in vitro ADME, cynomolgus monkey; conditions: pH 7.4, read-out: Fu (%), unbound fraction
# [10] = Plasma protein binding (HTdialysis equilibrium dialysis), dog plasma; format: in vitro ADME; conditions: beagle, pH 7.4, read-out: Fu (%), unbound fraction
# [11] = Plasma stability, dog plasma; format: in vitro ADME; conditions: beagle
# Procedure: (§5) The pooled frozen plasma was thawed in a water bath at 37 °C prior to the experiment. Plasma was centrifuged at 4000 rpm for 5 min, and the clots, if any, were removed. Using an Apricot automation workstation, blank plasma (98 μL/well) was added to six 96-well reaction plates (Blank, T0, T10, T30, T60, and T120). An Apricot automation workstation was used to add working solution (2 μL/well, 100 μM) to all reaction plates except the Blank plate (T0, T10, T30, T60, and T120). All reaction plates containing mixtures of compound and plasma were incubated at 37 °C in a water bath. At the end of the incubation, 400 μL of stop solution (200 ng/mL tolbutamide and 200 ng/mL labetalol in acetonitrile) was added to precipitate the protein, and the mixture was mixed thoroughly. Samples were then vortexed and centrifuged (20 min, 4000 rpm, 4 °C). After centrifugation, an Apricot automation workstation was used to transfer 50 μL of supernatant into 100 μL of HPLC water. […] Each bioanalysis plate was sealed and shaken for 10 min prior to LC-MS/MS analysis. The % remaining test compound after incubation in plasma was calculated using the following equation:(11) % Remaining= PAR at appointed incubation time/PAR at T0 time×100 where PAR is the peak area ratio of analyte versus internal standard (IS).
# (§6) The appointed incubation time points are T0 (0 min), Tn (n = 0, 10, 30, 60, 120 min).
# [12] = Plasma stability, human plasma; format: in vitro ADME
# Procedure: as §5, §6
# [13] = Plasma stability, mouse plasma; format: in vitro ADME
# Procedure: as §5, §6
# [14] = Plasma stability, rat plasma; format: in vitro ADME
# Procedure: as §5, §6
# [15] = Metabolic stability in liver microsomes, MLM; format: in vitro ADME, CD-1 mouse
# Procedure: (§7) All incubations were performed at 37 °C in 100 mM potassium phosphate buffer in an orbital incubator. Various nicotinamide adenine dinucleotide phosphate (NADPH) concentrations were tried to optimize the method. […] Samples were withdrawn from the reaction mixture at different times (5, 15, 30, 45, and 60 min), and the reaction was terminated using acetonitrile. […] Each bioanalysis plate was sealed and shaken for 10 min prior to LC-MS/MS analysis (Table S6).
# [16] = Metabolic stability in liver microsomes, CLM; format: in vitro ADME, cynomolgus monkey
# Procedure: as §7
# [17] = Metabolic stability in liver microsomes, DLM; format: in vitro ADME, beagle dog
# Procedure: (§8) All incubations were performed at 37 °C in 100 mM potassium phosphate buffer in an orbital incubator. Various nicotinamide adenine dinucleotide phosphate (NADPH) concentrations were tried to optimize the method. […]. The positive control compound testosterone was incubated in parallel with the BEA samples. Each bioanalysis plate was sealed and shaken for 10 min prior to LC-MS/MS analysis (Table S6). […]
# [18] = Metabolic stability in liver microsomes, RLM; format: in vitro ADME, Sprague Dawley rat
# Procedure: as §8
# [19] = Plasma stability, monkey plasma; format: in vitro ADME; conditions: cynomolgus
# Procedure: as §5, §6
# [20] = Metabolite identification by LC-UV-MS^n in monkey liver microsomes; format: in vitro ADME; design: key: +: metabolite was detected in liver microsomes; -: metabolite was not detected in liver microsomes; conditions: BEA 10 µM, 37 °C, 60 min
# Procedure: (§9) The positive control, 7-ethoxycoumarin (7-EC) at 10 µM, was run concurrently to assess Phase I metabolic activities in liver microsomes. […] After incubation, the samples were analyzed by LC-UV-MS (Table S7). The structures of the metabolites were proposed based on the interpretation of their MS and MS2 data. The results are presented in Table 6 and Figure 6. %Total=Peak Area of a Releted Component/Peak Area of Total Releted Component×100%
# [21] = Metabolite identification by LC-UV-MS^n in dog liver microsomes; format: in vitro ADME; design: key: +: metabolite was detected in liver microsomes; -: metabolite was detected in liver microsomes; conditions: BEA 10 µM, 37 °C, 60 min
# Procedure: as §9
# [22] = Metabolite identification by LC-UV-MS^n in rat liver microsomes; format: in vitro ADME; design: key: +: metabolite was detected in liver microsomes; -: metabolite was detected in liver microsomes; conditions: BEA 10 µM, 37 °C, 60 min
# Procedure: as §9
# [23] = Metabolite identification by LC-UV-MS^n in mouse liver microsomes; format: in vitro ADME; design: key: +: metabolite was detected in liver microsomes; -: metabolite was detected in liver microsomes; conditions: BEA 10 µM, 37 °C, 60 min
# Procedure: as §9
# [24] = Metabolite identification by LC-UV-MS^n in human liver microsomes; format: in vitro ADME; design: key: +: metabolite was detected in liver microsomes; -: metabolite was not detected in liver microsomes; conditions: BEA 10 µM, 37 °C, 60 min
# Procedure: as §9
# [25] = target: T1, CYP2C9 (Homo sapiens, UniProt P11712); format: in vitro ADME; conditions: CYP2C9 in HLM; positive control, final conc. 3 μM in Table S1
# T1 construct: tissue Corning or Xenotech; host or cells: human liver microsomes (mixed gender)
# Procedure: A mixture of microsomes and substrates for each CYP isozyme were prepared individually in 100 mM potassium phosphate buffer at pH 7.4. […] The reaction mixture was incubated for 10 min, followed by the addition of 20 μL of 10 mM NADPH solution. […] At the appropriate time point, we terminated the reaction by adding 400 µL of cold stop solution (200 ng/mL tolbutamide and labetalol in acetonitrile). The samples were centrifuged at 4000 rpm for 20 min to precipitate the protein, and then detected by LC/MS/MS. XL fit was used to plot the percent of vehicle control versus the test compound concentrations and for nonlinear regression analysis of the data. The IC50 values were determined using 3- or 4-parameter logistic equations.
# [26] = 120 min, read-out: Remaining % (T = 120 min)
# T1 sequence (P11712 whole entry): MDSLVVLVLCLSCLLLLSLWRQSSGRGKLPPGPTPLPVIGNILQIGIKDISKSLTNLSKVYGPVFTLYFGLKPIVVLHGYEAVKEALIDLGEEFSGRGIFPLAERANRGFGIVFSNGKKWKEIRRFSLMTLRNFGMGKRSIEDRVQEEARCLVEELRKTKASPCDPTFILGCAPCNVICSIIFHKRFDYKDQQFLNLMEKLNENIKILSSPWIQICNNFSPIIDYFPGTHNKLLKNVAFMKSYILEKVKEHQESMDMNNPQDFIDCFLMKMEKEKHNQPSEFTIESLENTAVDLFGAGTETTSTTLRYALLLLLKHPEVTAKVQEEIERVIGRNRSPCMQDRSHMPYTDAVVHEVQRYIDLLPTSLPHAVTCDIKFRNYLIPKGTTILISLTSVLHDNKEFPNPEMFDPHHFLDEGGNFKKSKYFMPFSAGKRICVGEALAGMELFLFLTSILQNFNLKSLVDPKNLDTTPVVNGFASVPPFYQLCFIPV
molecule,measurement,setting,value
CCOc1ccc2ccc(=O)oc2c1 [7-Ethoxycoumarin],half-life at 1 μM,"[1]; Sprague Dawley, cryopreserved hepatocytes (suspension), rat hepatocytes, 0.5 × 10^6 cells/mL, 1 μM, n = 2",18.2 min
same,"remaining at 1.5 h, 1 μM","[1]; Sprague Dawley, cryopreserved hepatocytes in suspension, rat hepatocytes, 90 min, read-out: Remaining % (T = 90 min)",2.1%
same,CLint scaled at 1 μM,"[1]; Sprague Dawley, cryopreserved hepatocytes in suspension, scaled from rat hepatocyte CLint, read-out: CLint (liver)",356 mL/min/kg
same,CLint (hep) (μL/min/10^6),[1]; rat hepatocytes,76.0 μL/min/10^6
same,half-life at 1 μM,"[2]; CD-1, cryopreserved hepatocytes (suspension), mouse hepatocytes, 0.5 × 10^6 cells/mL, 1 μM, n = 2",< 7.5 min
same,CLint scaled at 1 μM,"[2]; CD-1, cryopreserved hepatocytes in suspension, scaled from mouse hepatocyte CLint, read-out: CLint (liver)",> 2200 mL/min/kg
same,CLint (hep) (μL/min/10^6),[2]; mouse hepatocytes,>184.8 μL/min/10^6
same,Remaining % (T = 90 min),"[2]; mouse hepatocytes, 90 min",0.0%
same,half-life at 1 μM,"[3]; beagle, cryopreserved hepatocytes in suspension, dog hepatocytes, 0.5 × 10^6 cells/mL, 1 μM, n = 2",5.4 min
same,CLint scaled at 1 μM,"[3]; beagle, cryopreserved hepatocytes in suspension, scaled from dog hepatocyte CLint, read-out: CLint (liver)",1760 mL/min/kg
same,CLint (hep) (μL/min/10^6),[3]; dog hepatocytes,256.4 μL/min/10^6
same,Remaining % (T = 90 min),"[3]; dog hepatocytes, 90 min",0.0%
same,half-life at 1 μM,"[4]; cryopreserved hepatocytes (suspension), human hepatocytes, 0.5 × 10^6 cells/mL, 1 μM, n = 2",41.6 min
same,"remaining at 1.5 h, 1 μM","[4]; cryopreserved hepatocytes in suspension, human hepatocytes, 90 min, read-out: Remaining % (T = 90 min)",21.9%
same,CLint scaled at 1 μM,"[4]; cryopreserved hepatocytes in suspension, scaled from human hepatocyte CLint, read-out: CLint (liver)",92.6 mL/min/kg
same,CLint (hep) (μL/min/10^6),[4]; human hepatocytes,33.3 μL/min/10^6
same,half-life at 1 μM,"[5]; cryopreserved hepatocytes in suspension, monkey hepatocytes, 0.5 × 10^6 cells/mL, 1 μM, n = 2",13.6 min
same,CLint scaled at 1 μM,"[5]; cynomolgus monkey, cryopreserved hepatocytes in suspension, scaled from monkey hepatocyte CLint, read-out: CLint (liver)",367 mL/min/kg
same,CLint (hep) (μL/min/10^6),[5]; monkey hepatocytes,102.0 μL/min/10^6
same,Remaining % (T = 90 min),"[5]; monkey hepatocytes, 90 min",0.0%
Beauvericin,"Inhibition mechanism, CYP3A4",[6],mix-type
CC(=O)CC(c1ccccc1)c1c(O)c2ccccc2oc1=O (stereo not shown) [warfarin],fraction unbound at 5 h,[7],0.0052
same,fraction unbound at 5 h,[8],0.0271
same,fraction unbound at 5 h,[9],0.0084
same,fraction unbound at 5 h,[10],0.0246
CC(=O)Oc1ccc(C(c2ccc(OC(C)=O)cc2)c2ccccn2)cc1 [Bisacodyl],half-life at 2 μM,"[11]; 37 °C, n = 2",7.2 min
same,"remaining at 2 h, 2 μM",[11]; [26],0%
CC(C)[N+](C)(CCOC(=O)C1c2ccccc2Oc2ccccc21)C(C)C [Propantheline bromide],half-life at 2 μM,"[12]; 37 °C, n = 2",10.3 min
same,"remaining at 2 h, 2 μM",[12]; [26],0%
same,half-life at 2 μM,"[13]; CD-1, 37 °C, n = 2",36.6 min
same,"remaining at 2 h, 2 μM","[13]; CD-1, 120 min, read-out: Remaining % (T = 120 min)",9.7%
CCOC(=O)[C@H](CCc1ccccc1)N[C@@H](C)C(=O)N1CCC[C@H]1C(=O)O.O=C(O)/C=C\C(=O)O [Enalapril maleate salt],T1/2,"[14]; 37 °C, n = 2",12.8 min
same,Remaining % (T = 120 min),[14]; 120 min,0.2%
C[C@]12CC[C@H]3[C@@H](CCC4=CC(=O)CC[C@@]43C)[C@@H]1CC[C@@H]2O [Testosterone],half-life at 1 μM,"[15]; CD-1, mouse, liver microsomes, MLM, 1 μM, NADPH, n = 2",3.9 min
same,microsomal CLint at 1 μM,"[15]; CD-1, mouse, liver microsomes, MLM, read-out: CLint(mic)",359 µL/min/mg
same,CLint scaled at 1 μM,"[15]; CD-1, mouse, liver microsomes, scaled from MLM CLint(mic)",1420 mL/min/kg
same,Remaining % (T = 60 min),"[15]; MLM, 60 min",0.0%
same,Remaining % (T = 60 min),"[16]; CLM, 60 min",0.0%
same,half-life at 1 μM,"[16]; cynomolgus monkey, liver microsomes, CLM, 1 μM, NADPH, n = 2",5 min
same,microsomal CLint at 1 μM,"[16]; cynomolgus monkey, liver microsomes, CLM, read-out: CLint(mic)",277 µL/min/mg
same,CLint scaled at 1 μM,"[16]; cynomolgus monkey, liver microsomes, scaled from CLM CLint(mic)",374 mL/min/kg
same,T1/2,"[17]; DLM, 1 μM, NADPH, n = 2",20.0 min
same,microsomal CLint at 1 μM,"[17]; beagle, dog, microsomes, DLM, read-out: CLint(mic)",69.2 µL/min/mg
same,CLint scaled at 1 μM,"[17]; beagle, dog, microsomes, scaled from DLM CLint(mic)",99.6 mL/min/kg
same,Remaining % (T = 60 min),"[18]; RLM, 60 min",0.0%
same,microsomal CLint at 1 μM,"[18]; Sprague Dawley, rat, microsomes, RLM, read-out: CLint(mic)",1370 µL/min/mg
same,CLint scaled at 1 μM,"[18]; Sprague Dawley, rat, microsomes, scaled from RLM CLint(mic)",2470 mL/min/kg
CCN(CC)CCOC(=O)c1ccc(N)cc1 [Procaine Hydrochloride],half-life at 2 μM,"[19]; 37 °C, n = 2",4.4 min
same,"remaining at 2 h, 2 μM",[19]; [26],0%
CC(C)[C@H]1OC(=O)[C@H](Cc2ccccc2)N(C)C(=O)[C@@H](C(C)C)OC(=O)[C@H](Cc2ccccc2)N(C)C(=O)[C@@H](C(C)C)OC(=O)[C@H](Cc2ccccc2)NC1=O [M15],Detected in liver microsomes: Monkey,[20],+
same,Detected in liver microsomes: Dog,[21],+
same,Detected in liver microsomes: Rat,[22],+
same,Detected in liver microsomes: Mouse,[23],+
same,Detected in liver microsomes: Human,[24],+
Nc1ccc(S(=O)(=O)Nc2ccnn2-c2ccccc2)cc1 [Sulfaphenazole],Activity (% VC),[25],20.0 % VC
